In publication PMC6917776, “Discovery of a chemical probe for PRDM9” (Nature Communications, 2019):
“And” between values parts separate entries of the source, which are not always exact repeats. Identical values can stand only once. Like-named read-outs stand apart in the source and are kept apart here.

Target: T1, PRDM7 (Homo sapiens, UniProt Q9NQW5)
T1 sequence (Q9NQW5 1-492): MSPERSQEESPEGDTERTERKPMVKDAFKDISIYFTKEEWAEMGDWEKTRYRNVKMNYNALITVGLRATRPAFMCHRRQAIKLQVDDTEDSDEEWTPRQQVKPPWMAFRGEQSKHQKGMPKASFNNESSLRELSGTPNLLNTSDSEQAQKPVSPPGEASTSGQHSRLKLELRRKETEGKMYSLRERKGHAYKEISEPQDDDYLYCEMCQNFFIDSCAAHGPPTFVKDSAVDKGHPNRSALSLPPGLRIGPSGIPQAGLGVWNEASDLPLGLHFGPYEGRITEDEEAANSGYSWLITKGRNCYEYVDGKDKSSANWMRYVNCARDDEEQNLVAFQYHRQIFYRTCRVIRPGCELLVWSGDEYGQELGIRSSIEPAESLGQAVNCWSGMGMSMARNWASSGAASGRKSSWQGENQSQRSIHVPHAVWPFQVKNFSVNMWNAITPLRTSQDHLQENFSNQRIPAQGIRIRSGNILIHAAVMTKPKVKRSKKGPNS
Experiment: PRDM7 methyltransferase activity assay (3H-SAM scintillation proximity assay)
Assay type: biochemical
Protocol: Methyltransferase activity assays for PRDM9 (amino acids: 195–415) were performed by monitoring the incorporation of tritium-labeled methyl group from ^3H-SAM to H3 (1–25) peptide using scintillation proximity assay (SPA). The enzymatic reactions were performed at 23 °C with 30 min incubation in 20 mM Tris-HCl (pH 7.5), 5 mM DTT, 0.01% Triton X-100 and 1% DMSO containing 71 μM of SAM (5 μM of ^3H-SAM), 4 μM of biotinylated H3 (1–25) peptide and 5 nM of PRDM9. For PRDM7, reactions were performed at 23 °C with 90 min incubation in 20 mM BTP pH 9.0, 5 mM DTT, 0.01% Triton X-100 and 1% DMSO containing 900 μM of SAM (5 μM of ^3H-SAM), 4 μM of biotinylated H3 (1–25) peptide and 100 nM of enzyme. Compounds were titrated from 3 nM to 50 μM and from 200 nM to 200 μM for PRDM9 and PRDM7, respectively. To stop the reactions, 10 μL of 7.5 M guanidine hydrochloride was added to 10 μL of reaction mixture, followed by 60 μL of buffer (20 mM Tris, pH 8.0), mixed, and transferred to a 384-well streptavidin coated Flash-plate. After mixing, the mixtures in Flash-plate were incubated for 2 h, and the CPM counts were measured using TopCount plate reader. All enzymatic reactions were performed in triplicate, and IC50 values were determined by fitting the data to Four Parameter Logistic equation using the GraphPad Prism software.

[1] = 0.195312 µM compound, 0.195312 µM
[2] = 0.195312 µM compound, read-out: PRDM7-Activity %, Average (n=3)
[3] = 0.195312 µM compound, read-out: PRDM7-Activity %, single experiments
[4] = 0.390625 µM compound, 0.390625 µM
[5] = 0.390625 µM compound, read-out: PRDM7-Activity %, Average (n=3)
[6] = 0.390625 µM compound, read-out: PRDM7-Activity %, single experiments
[7] = 0.78125 µM compound, 0.78125 µM
[8] = 0.78125 µM compound, read-out: PRDM7-Activity %, Average (n=3)
[9] = 0.78125 µM compound, read-out: PRDM7-Activity %, single experiments
[10] = 1.5625 µM compound, read-out: PRDM7-Activity %, Average (n=3)
[11] = 1.5625 µM compound, read-out: PRDM7-Activity %, single experiments
[12] = 3.125 µM compound, read-out: PRDM7-Activity %, Average (n=3)
[13] = 3.125 µM compound, read-out: PRDM7-Activity %, single experiments
[14] = 6.25 µM compound, read-out: PRDM7-Activity %, Average (n=3)
[15] = 6.25 µM compound, read-out: PRDM7-Activity %, single experiments
[16] = 12.5 µM compound, read-out: PRDM7-Activity %, Average (n=3)
[17] = 12.5 µM compound, read-out: PRDM7-Activity %, single experiments
[18] = 25 µM compound, read-out: PRDM7-Activity %, Average (n=3)
[19] = 25 µM compound, read-out: PRDM7-Activity %, single experiments
[20] = 50 µM compound, read-out: PRDM7-Activity %, Average (n=3)
[21] = 50 µM compound, read-out: PRDM7-Activity %, single experiments
[22] = 100 µM compound, read-out: PRDM7-Activity %, Average (n=3)
[23] = 100 µM compound, read-out: PRDM7-Activity %, single experiments
[24] = 200 µM compound, read-out: PRDM7-Activity %, Average (n=3)

SMILES	PRDM7-Activity %, single experiments [1]	activity at 0.195312 µM [2]	activity at 0.195312 µM [3]	PRDM7-Activity %, single experiments [4]	activity at 0.390625 µM [5]	activity at 0.390625 µM [6]	PRDM7-Activity %, single experiments [7]	activity at 0.78125 µM [8]	activity at 0.78125 µM [9]	PRDM7-Activity %, single experiments (1.5625 µM compound, 1.5625 µM)	activity at 1.5625 µM [10]	activity at 1.5625 µM [11]	PRDM7-Activity %, single experiments (3.125 µM compound, 3.125 µM)	activity at 3.125 µM [12]	activity at 3.125 µM [13]	PRDM7-Activity %, single experiments (6.25 µM compound, 6.25 µM)	activity at 6.25 µM [14]	activity at 6.25 µM [15]	PRDM7-Activity %, single experiments (12.5 µM compound, 12.5 µM)	activity at 12.5 µM [16]	other results
COc1cc(OC)cc(-c2noc(N3CCN(C)C4(CCN(c5ccnc(C)c5)CC4)C3)n2)c1 [MRK-740]	104.6% and 100.9%	103%	104%	104.3% and 107.1%	105%	103%	95.5% and 104.5%	99.4%	98.3%	97.86% and 90.81%	94.9%	96.1%	99.32% and 89.67%	95.4%	97.1%	81.54% and 82.05%	81.6%	81.2%	70.89% and 77.38%	74.1%	activity at 12.5 µM [17]: 74%; PRDM7-Activity %, single experiments (25 µM compound, 25 µM): 64.86% and 73.52%; activity at 25 µM [18]: 69.3%; activity at 25 µM [19]: 69.4%; activity at 50 µM [20]: 46.3%; activity at 50 µM [21]: 47.1%; PRDM7-Activity %, single experiments (100 µM compound, 100 µM): 28% and 33.38%; activity at 100 µM [22]: 30%; activity at 100 µM [23]: 28.6%; PRDM7-Activity %, single experiments (200 µM compound, 200 µM): 12.96% and 18.48%; activity at 200 µM [24]: 15.8%; activity at 200 µM (200 µM compound, read-out: PRDM7-Activity %, single experiments): 16.1%; IC50 (biotinylated H3 (1–25) peptide): 45 ± 7 µM
COc1cc(OC)cc(-c2noc(N3CCN(C)C4(CCN(c5ccccc5)CC4)C3)n2)c1 [MRK-740-NC]	100.2% and 97.4%	99.4%	101%	100.3% and 102.2%	102%	104%	94.78% and 94.12%	92.2%	87.6%	107.5% and 100.6%	102%	98.2%	102.8% and 99.77%	97.8%	90.9%	83.67% and 87.1%	90.6%	101%	102.7% and 91.72%	94.2%	PRDM7 inhibition (in words): no significant PRDM7 inhibition; activity at 12.5 µM [17]: 88.2%; PRDM7-Activity %, single experiments (25 µM compound, 25 µM): 99.4% and 100.5%; activity at 25 µM [18]: 101%; activity at 25 µM [19]: 105%; PRDM7-Activity %, single experiments (50 µM compound, 50 µM): 93.21% and 92.53%; activity at 50 µM [20]: 93%; activity at 50 µM [21]: 93.3%; PRDM7-Activity %, single experiments (100 µM compound, 100 µM): 98.05% and 87.79%; activity at 100 µM [22]: 89.8%; activity at 100 µM [23]: 83.5%; PRDM7-Activity %, single experiments (200 µM compound, 200 µM): 98.85% and 73.14% and 89.14%; activity at 200 µM [24]: 87%
